Tests used:
[1] = Baddeley et al., 2015, cited from earlier work
[2] = format: in vivo, human; conditions: 4 mg MTC approximately twice weekly; MCI to moderate AD
Method: Prior-filed PCT/EP2023/064369 (Example 3) describes the structure of a phase 3 clinical trial in mild to moderate AD in which different arms of participants were treated with MTC and LMTM respectively. This was a Phase 3, randomized, double-blind, outpatient trial to evaluate the safety, efficacy, and tolerability of LMTM in participants with severity ranging from mild cognitive impairment (MCI) to moderate AD. The MTC minipill was intended as a urinary discolourant placebo (in combination with a true placebo i.e. a blank minipill lacking any MTC or LMTM). […] Of patients receiving MTC 4 mg twice weekly, the majority (85%) were unexpectedly found to have blood levels of active drug above the threshold needed to produce a clinical effect.

[3] = 4 mg twice weekly; prior-filed PCT/EP2023/064369; cited from earlier work
[4] = tested on: TDP-43; conditions: 0.05 μM MT; SH-SY5Y cells; Yamashita et al 2009; cited from earlier work
[5] = tested on: huntingtin derivative containing a polyglutamine stretch of 102 residues; conditions: tested at 0, 10 and 100 μM; zebrafish; van Bebber et al. 2010; cited from earlier work

CN(C)c1ccc2c(c1)Sc1cc(N(C)C)ccc1N2 [LMTM, leuco-methylthioninium bis(hydromethanesulfonate)]
pharmaceutic properties (solubility and pKa) [1]: superior pharmaceutic properties in terms of solubility and pKa
absorption limitations ([1]; compared with the MT+ form): not subject to the absorption limitations of the MT^+ form

CN(C)c1ccc2nc3ccc(N(C)C)cc3[s+]c2c1 [MTC, 3,7-bisdimethylaminophenazothionium chloride]
clinical benefit [2]: showed clinical benefit
therapeutic benefits in treating Alzheimer's disease [3]: showed therapeutic benefits

CN(C)c1ccc2nc3ccc(N(C)C)cc3[s+]c2c1 [MT, N3,N3,N7,N7-tetramethylphenothiazin-5-ium-3,7-diamine]
reduction of the number of TDP-43 aggregates [4]: 50%
formation of huntingtin polyglutamine aggregates [5]: prevented the formation of such aggregates in zebrafish in a dose dependent manner

Source: patent publication US20260097043A1, “NOVEL FORMULATIONS AND VEHICLES” (WisTa Laboratories Ltd., priority 2022, published 2026)
